Columns and labels:
[1] = Pharmacokinetics and oral bioavailability in dogs; assay type: in vivo; conditions: male, beagle, plasma; dog; 1 mg/kg IV; solution in water:ethanol:PEG400 (60:20:20)
Protocol: Blood samples were collected from the jugular vein of each animal at 0 (pre-dose), 5, 15, and 30 minutes and 1, 2, 4, 8, 12, and 24 hours following intravenous administration and at 0 (pre-dose), 15 and 30 minutes and 1, 2, 4, 8, 12, and 24 hours following oral gavage administration. The amount of compound (1-1) present in each sample was detected using a qualified LC-MS/MS method with a lower limit of quantification of 0.5 ng/mL. The area under the plasma concentration-time curve (AUC) was determined by use of the linear trapezoidal rule up to the last measurable concentration without extrapolation of the terminal elimination phase to infinity. The elimination half-life (t1/2) was calculated by least-squares regression analysis of the terminal linear part of the log concentration-ime curve. The maximum plasma concentration (Cmax) and the time to Cmax (tmax) were derived directly from the plasma concentration data. The oral bioavailability (F) was calculated by dividing the dose normalized AUC after oral administration by the dose normalized AUC after intravenous administration and reported as percentages (%).

HCC1937 [2] = experiment: Cell counting proliferation, HCC1937; assay type: cell-based; conditions: Homo sapiens
MDA-MB-468 [3] = experiment: Cell counting proliferation, MDA-MB-468; assay type: cell-based; conditions: Homo sapiens
MDA-MB-231 [4] = experiment: Cell cycle after drug washout, MDA-MB-231; assay type: cell-based, human; conditions: 75 nM for 72 h, then 48 h of drug washout
Protocol: (§1) Cells were staining with propidium iodide then analyzed using a FACScan flow cytometer. […] After 72 h of treatment, control and treated cells were washed with PBS and re-incubated with compound (1-1) free medium (drug washout). As show in FIG. 14A-14C, significant differences in the percentage of compound (1-1)-treated cells in the G1, S and G2/M phases with respect to untreated controls were determined by a one-way ANOVA test (p<0.001) followed by an SNK a posteriori test. After washout, significant differences in the percentage of cells in a given cell cycle phase between control and pre-treated cells were determined with the Student t-test for independent samples with equal or different variance, as appropriate. * , × and # means significant difference between treated cells respect and controls in G1 phase (*p<0.05, **p<0.01), G2/M phase (×p<0.05, ××p<0.01) and S phase p<0.05, ## p<0.01), respectively. Each bar and vertical line represents the mean±SEM, respectively (n≥3).

MDA-MB-468 [5] = experiment: Cell cycle after drug washout, MDA-MB-468; assay type: cell-based, human; conditions: 650 nM for 72 h, then drug washout
Protocol: as §1

MDA-MB-231 [6] = experiment: Western blotting and RT-PCR expression, MDA-MB-231; assay type: cell-based, human; conditions: 75 nM; 24, 48 and 72 h
Excerpt: Logarithmic transformation of the variable was applied before the ANOVA test if required. As shown in FIG. 16A-C, Western blots are representative of three independent experiments where each bar and vertical line represents the mean±SEM, respectively (n=3). As shown in FIG. 15D-15G, C-MYC protein and mRNA levels were unchanged by Compound (1-1) treatment in all the three cell lines.
CDKN1A (p21) mRNA levels were increased in all three cell models (p<0.001). […] Significant differences in the mRNA levels were determined by one-way ANOVA test (p<0.01) followed by SNK a posteriori test (*p<0.05, **p<0.01, […]). Logarithmic transformation of the variable was applied before the ANOVA test if required. Each bar and vertical line represents the mean±SEM, respectively (n=3). Western blots are representative of 3 independent experiments.

[7] = system: MDA-MB-231 nude mice-derived xenografts; experiment: MDA-MB-231 xenografts in nude mice; assay type: in vivo
Protocol: In vivo assays were performed in 8-week-old female MDA-MB-231 nude mice-derived xenografts. 10×10^6 cells were injected, when tumor volume reached 100 mm^3, mice were randomized to 4 groups (n=9): 1) vehicle; 2) 50 mg/kg Compound (1-1) (BID, po); 3) 2 mg/kg of everolimus (3 time a week, ip); 4) combination Compound (1-1) and everolimus; 4 weeks treatment.
Symbols with • indicate significant differences between treatment vs. vehicle-treated mice (p<0.05). * indicates a significant difference in the tumor mass between the combination treated animals and the two single agent groups (*p<0.05, **p<0.01 and ***p<0.001). Results represent the mean±SEM (during the treatment period, n=9). Variation of animal body weight during treatment is illustrated in FIG. 18B. […] The T/C ratio was 39% after 10 days of combination treatment, with an optimal value of 21% on day 23. Compound (1-1) can be used for the treatment of TNBC, either alone or in combination with mTOR inhibitors.

HCC1937 [8] = experiment: MTT proliferation assay, HCC1937; conditions: Homo sapiens
MDA-MB-231 [9] = experiment: MTT proliferation assay, MDA-MB-231; conditions: Homo sapiens
MDA-MB-468 [10] = experiment: MTT proliferation assay, MDA-MB-468; conditions: for Emax / GI50: Homo sapiens
[11] = HCC1937, 48 h, 48 h exposure, hypoxia (0.1% O2)
[12] = HCC1937, 48 h, 48 h exposure, normoxia
[13] = HCC1937, 72 h, 72 h exposure, hypoxia (0.1% O2)
[14] = HCC1937, 72 h, 72 h exposure, normoxia
[15] = MDA-MB-468, 48 h, 48 h exposure, hypoxia (0.1% O2)
[16] = MDA-MB-468, 48 h, 48 h exposure, hypoxia (0.1% O2), * = apparent value
[17] = MDA-MB-468, 48 h, 48 h exposure, normoxia
[18] = MDA-MB-468, 72 h, 72 h exposure, hypoxia (0.1% O2)
[19] = MDA-MB-468, 72 h, 72 h exposure, normoxia
[20] = Compound (1-1) 50 mg/kg BID po, everolimus 2 mg/kg 3 time a week ip, 4 weeks treatment
[21] = MDA-MB-231, 48 h, 48 h exposure, hypoxia (0.1% O2)
[22] = MDA-MB-231, 48 h, 48 h exposure, normoxia
[23] = MDA-MB-231, 72 h, 72 h exposure, hypoxia (0.1% O2)
[24] = MDA-MB-231, 72 h, 72 h exposure, normoxia

For Cc1sc2c(c1C)C(c1ccc(Cl)cc1)=N[C@@H](CC(=O)Nc1ccc(O)cc1)c1nnc(C)n1-2 [Compound (1-1), 2-[(6S)-4-(4-chlorophenyl)-2,3,9-trimethyl-6H-thienol[3,2-f]-[1,2,4]triazolo[4,3-a][1,4]diazepin-6-yl]-N-(4-hydroxyphenyl)acetamide dihydrate], which Cmax [1] is on record?
The Cmax was 0.769 ng/mL.

What about the Emax (HCC1937 [2]; [11]) of the same molecule?
Its Emax is 27%.

And the GI50 (HCC1937 [2]; [11])?
Its GI50 is over 6000 nM.

What about the GI50 (HCC1937 [2]; [12]) of the same molecule?
The GI50 was over 6000 nM.

What about the Emax (HCC1937 [2]; HCC1937, 48 h, 48 h exposure, normoxia, percent with respect to control untreated cells) of the same molecule?
The Emax was 31%.

What about the Emax (HCC1937 [2]; [13]) of the same molecule?
The Emax was 54%.

And the GI50 (HCC1937 [2]; [13])?
The GI50 was 247 nM.

And the Emax (HCC1937 [2]; [14])?
Its Emax is 70%.

What about the GI50 (HCC1937 [2]; [14]) of the same molecule?
Its GI50 is 262 nM.

And the Emax (MDA-MB-468 [3]; [15])?
The Emax was 50%.

And the GI50 (MDA-MB-468 [3]; [16])?
Its GI50 is 60.6 nM.

What about the Emax (MDA-MB-468 [3]; [17]) of the same molecule?
Its Emax is 30%.

What about the GI50 (MDA-MB-468 [3]; [17]) of the same molecule?
Its GI50 is over 6000 nM.

What about the Emax (MDA-MB-468 [3]; [18]) of the same molecule?
Its Emax is 71%.

And the GI50 (MDA-MB-468 [3]; [18])?
The GI50 was 251 nM.

And the Emax (MDA-MB-468 [3]; [19])?
Its Emax is 80%.

What about the GI50 (MDA-MB-468 [3]; [19]) of the same molecule?
Its GI50 is 304 nM.

What about the “cell cycle pattern after drug washout” value (MDA-MB-231 [4]) of the same molecule?
The value was “recovered the control cell cycle pattern”.

And the “cell cycle pattern after drug washout” value (MDA-MB-468 [5])?
The value was “substantial (p<0.05) accumulation of cells in G2/M phase”.

And the BRD2 levels (MDA-MB-231 [6])?
The BRD2 levels was “increased”.

What about the body weight ([7]; 50 mg/kg BID po, after 19 days of treatment) of the same molecule?
The body weight was “without body weight loss”.

What about the “best T/C %” value [7, 20] of the same molecule?
Its value is 40.7%.

And the “tumor mass with respect to vehicle-treated mice” value [7, 20]?
Its value is “significant (p<0.05) reduction”.

What about the Emax (HCC1937 [8]; [11]) of the same molecule?
Its Emax is 60%.

And the GI50 (HCC1937 [8]; [11])?
The GI50 was 23.1 nM.

What about the Emax (HCC1937 [8]; [12]) of the same molecule?
The Emax was 41%.

What about the GI50 (HCC1937 [8]; [12]) of the same molecule?
The GI50 was 110 nM.

What about the Emax (HCC1937 [8]; [13]) of the same molecule?
Its Emax is 74%.

What about the GI50 (HCC1937 [8]; [13]) of the same molecule?
Its GI50 is 29 nM.

What about the Emax (HCC1937 [8]; [14]) of the same molecule?
Its Emax is 51%.

What about the GI50 (HCC1937 [8]; HCC1937, 72 h, 72 h exposure, normoxia, * = apparent value) of the same molecule?
Its GI50 is 81.9 nM.

And the Emax (MDA-MB-231 [9]; [21])?
The Emax was 68%.

And the GI50 (MDA-MB-231 [9]; [21])?
The GI50 was 63.3 nM.

What about the Emax (MDA-MB-231 [9]; [22]) of the same molecule?
The Emax was 71%.

And the GI50 (MDA-MB-231 [9]; [22])?
Its GI50 is 132 nM.

What about the Emax (MDA-MB-231 [9]; [23]) of the same molecule?
The Emax was 83%.

And the GI50 (MDA-MB-231 [9]; [23])?
Its GI50 is 48.2 nM.

And the Emax (MDA-MB-231 [9]; [24])?
The Emax was 83%.

And the GI50 (MDA-MB-231 [9]; [24])?
The GI50 was 81.7 nM.

What about the Emax (MDA-MB-468 [10]; [15]) of the same molecule?
The Emax was 53%.

And the GI50 (MDA-MB-468 [10]; [16])?
Its GI50 is 258 nM.

What about the Emax (MDA-MB-468 [10]; [17]) of the same molecule?
The Emax was under 10%.

And the GI50 (MDA-MB-468 [10]; [17])?
The GI50 was over 6000 nM.

And the Emax (MDA-MB-468 [10]; [18])?
Its Emax is 77%.

And the GI50 (MDA-MB-468 [10]; [18])?
The GI50 was 296 nM.

And the Emax (MDA-MB-468 [10]; [19])?
Its Emax is 42%.

What about the GI50 (MDA-MB-468 [10]; MDA-MB-468, 72 h, 72 h exposure, normoxia, * = apparent value) of the same molecule?
The GI50 was 448 nM.

What about the “effect of hypoxia on antiproliferative activity” value (MDA-MB-468 [10]; hypoxia (0.1% O2) vs normoxia, MTT assay and cell counting) of the same molecule?
Its value is “significantly (p<0.05) increased”.
